According to article PMC3265452 (PLoS Neglected Tropical Diseases, 2012):
Counter-ions that a name gives are not always drawn.

target: AaDOP2 (Aedes aegypti, UniProt H6D5H2); experiment: AaDOP2 antagonist screen of the LOPAC1280 library (HEK-CRELuc-Aadop2 cells, luminescence); assay type: cell-based; details: not given
Sequence (H6D5H2 1-476): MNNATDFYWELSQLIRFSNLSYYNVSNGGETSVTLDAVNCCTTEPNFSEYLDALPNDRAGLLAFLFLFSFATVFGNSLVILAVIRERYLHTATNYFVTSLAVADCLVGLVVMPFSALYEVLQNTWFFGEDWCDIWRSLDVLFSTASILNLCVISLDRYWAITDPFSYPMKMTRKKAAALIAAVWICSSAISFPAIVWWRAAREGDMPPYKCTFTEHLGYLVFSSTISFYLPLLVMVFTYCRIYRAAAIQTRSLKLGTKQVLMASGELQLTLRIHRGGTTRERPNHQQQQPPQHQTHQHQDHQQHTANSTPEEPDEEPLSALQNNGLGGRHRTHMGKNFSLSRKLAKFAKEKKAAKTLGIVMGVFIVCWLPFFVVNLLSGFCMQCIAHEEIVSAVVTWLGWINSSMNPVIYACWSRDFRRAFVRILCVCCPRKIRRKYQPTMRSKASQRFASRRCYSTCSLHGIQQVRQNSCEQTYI

Going from `CN(C)c1nc(N)c(C(=O)NC(=N)N)nc1Cl` [Compound 50, 5-(N,N-Dimethyl)amiloride hydrochloride] to `N=C(N)NC(=O)c1nc(Cl)c(N)nc1N` [Compound 84, Amiloride hydrochloride], the “Compound effect (percent receptor signaling in presence of test compound, relative lux units relative to the SCH23390 control)” value rises from 108 to 110.

Going from `Cn1cnc([N+](=O)[O-])c1Sc1ncnc2nc[nH]c12` [Compound 51, Azathioprine] to `Oc1ncnc2[nH]ncc12` [Compound 91, Allopurinol], the “Compound effect (percent receptor signaling in presence of test compound, relative lux units relative to the SCH23390 control)” value falls from 103 to 101.

Going from `Nc1nc2c(ncn2COCCO)c(=O)[nH]1` [Compound 52, Acyclovir] to `Nc1ncnc2c1ncn2[C@@H]1O[C@H](CO)[C@@H](O)[C@H]1O` [Compound 101, Adenosine], the “Compound effect (percent receptor signaling in presence of test compound, relative lux units relative to the SCH23390 control)” value rises from 90 to 96.

First: CN(C)CCCO[C@@H]1[C@H]2OC(C)(C)O[C@H]2O[C@@H]1[C@H](O)CO [Compound 53, Amiprilose hydrochloride]
Second: C[C@H](CCC(=O)NCCS(=O)(=O)O)[C@H]1CC[C@H]2[C@@H]3[C@H](O)C[C@@H]4C[C@H](O)CC[C@]4(C)[C@H]3C[C@H](O)[C@]12C [Compound 66, Sodium Taurocholate]
The “Compound effect (percent receptor signaling in presence of test compound, relative lux units relative to the SCH23390 control)” value of the first is lower: 99 for the first, 115 for the second.

First: O=C1Cc2c([nH]c3ccc([N+](=O)[O-])cc23)-c2ccccc2N1 [Compound 54, Alsterpaullone]
Second: Nc1ccc(N2C(=O)c3ccccc3C2=O)c(Cl)c1 [Compound 104, N-(4-Amino-2-chlorophenyl)phthalimide]
The “Compound effect (percent receptor signaling in presence of test compound, relative lux units relative to the SCH23390 control)” value of the first is lower: 92 for the first, 99 for the second.

Compared with `N=C(N)NCCC[C@H](N)C(=O)O` [Compound 56, L-Arginine], `N[C@@H](CCCC(=O)O)C(=O)O` [Compound 82, L-2-aminoadipic acid] is higher in “Compound effect (percent receptor signaling in presence of test compound, relative lux units relative to the SCH23390 control)” value: 94 for the first, 96 for the second.

Going from `CC(=O)N[C@@H](Cc1c[nH]c2ccccc12)C(=O)OCc1cc(C(F)(F)F)cc(C(F)(F)F)c1` [Compound 59, L-732,138] to `CC(=O)NCCc1c[nH]c2ccccc12` [Compound 83, N-Acetyltryptamine], the “Compound effect (percent receptor signaling in presence of test compound, relative lux units relative to the SCH23390 control)” value falls from 100 to 42.

First: CC(=O)Oc1ccccc1C(=O)O [Compound 60, Acetylsalicylic acid]
Second: C=CCc1ccccc1OCC(O)CNC(C)C (stereo not drawn) [Compound 96, Alprenolol hydrochloride]
The “Compound effect (percent receptor signaling in presence of test compound, relative lux units relative to the SCH23390 control)” value of the first is lower: 87 for the first, 104 for the second.

Going from `CC(C)CN(C)c1nc(N)c(C(=O)N=C(N)N)nc1Cl` [Compound 61, 5-(N-Methyl-N-isobutyl)amiloride] to `CN(Cc1cnc2nc(N)nc(N)c2n1)c1ccc(C(=O)N[C@@H](CCC(=O)O)C(=O)O)cc1` [Compound 74, Methotrexate], the “Compound effect (percent receptor signaling in presence of test compound, relative lux units relative to the SCH23390 control)” value rises from 72 to 89.

First: CC(=O)SCC[N+](C)(C)C.[Cl-] [Compound 62, Acetylthiocholine chloride]
Second: Br.Br.N=C(N)SCCN [Compound 64, 2-(2-Aminoethyl)isothiourea dihydrobromide]
The “Compound effect (percent receptor signaling in presence of test compound, relative lux units relative to the SCH23390 control)” value of the first is higher: 122 for the first, 104 for the second.

Going from `C[C@]12CCC(=O)C(O)=C1CC[C@@H]1[C@@H]2CC[C@]2(C)C(=O)CC[C@@H]12` [Compound 63, 4-Androsten-4-ol-3,17-dione] to `C[C@]12CC[C@@H](O)C[C@@H]1CC[C@@H]1[C@@H]2CC[C@]2(C)[C@@H](O)CC[C@@H]12` [Compound 86, 5alpha-Androstane-3alpha,17beta-diol], the “Compound effect (percent receptor signaling in presence of test compound, relative lux units relative to the SCH23390 control)” value falls from 107 to 98.

Going from `NCCCNCCSP(=O)(O)O` [Compound 67, Amifostine] to `NCCCP(=O)(O)O` [Compound 80, 3-Aminopropylphosphonic acid], the “Compound effect (percent receptor signaling in presence of test compound, relative lux units relative to the SCH23390 control)” value falls from 111 to 101.

Compared with `CC(=O)Nc1nnc(S(N)(=O)=O)s1` [Compound 68, Acetazolamide], `CC(=O)N[C@@H](CS)C(=O)O` [Compound 81, N-Acetyl-L-Cysteine] is lower in “Compound effect (percent receptor signaling in presence of test compound, relative lux units relative to the SCH23390 control)” value: 106 for the first, 101 for the second.

Going from `COC(=O)C1=CCCN(C)C1` [Compound 69, Arecoline hydrobromide] to `CCCCC[C@H](CC(=O)NO)C(=O)N[C@H](C(=O)N1CCC[C@H]1CO)C(C)C` [Compound 73, Actinonin], the “Compound effect (percent receptor signaling in presence of test compound, relative lux units relative to the SCH23390 control)” value falls from 104 to 96.

First: CCS(=O)(=O)Nc1cccc(C(=C2CCCCC2)c2cnc[nH]2)c1 [Compound 70, A-315456]
Second: Cl.NCCc1ccc(S(=O)(=O)F)cc1 [Compound 94, 4-(2-Aminoethyl)benzenesulfonyl fluoride hydrochloride]
The “Compound effect (percent receptor signaling in presence of test compound, relative lux units relative to the SCH23390 control)” value of the first is higher: 111 for the first, 105 for the second.

Going from `COc1ccc(CNC(=O)/C=C/c2ccc3[nH]cc(CCN(C)C)c3c2)cc1` [Compound 71, GR 4661] to `C=CC[N+](C)(C)c1ccc(CCC(=O)CCc2ccc([N+](C)(C)CC=C)cc2)cc1.[Br-].[Br-]` [Compound 100, BW 284c51], the “Compound effect (percent receptor signaling in presence of test compound, relative lux units relative to the SCH23390 control)” value falls from 114 to 93.

First: C[N+]1(C)[C@@H]2CC[C@H]1C[C@@H](OC(=O)C(CO)c1ccccc1)C2 (stereo partly drawn) [Compound 75, Atropine methyl bromide]
Second: CCCCc1oc2ccccc2c1C(=O)c1cc(I)c(OCCN(CC)CC)c(I)c1 [Compound 93, Amiodarone hydrochloride]
The “Compound effect (percent receptor signaling in presence of test compound, relative lux units relative to the SCH23390 control)” value of the first is higher: 105 for the first, 104 for the second.

Compared with `CCNC(=O)N1CCN(CCCC(c2ccc(F)cc2)c2ccc(F)cc2)CC1` [Compound 76, Amperozide hydrochloride], `Cl.Cl.N=C(N)c1ccc(N)cc1` [Compound 79, 4-Aminobenzamidine dihydrochloride] is higher in “Compound effect (percent receptor signaling in presence of test compound, relative lux units relative to the SCH23390 control)” value: 17 for the first, 106 for the second.

Compared with `NCCCCN=C(N)N` [Compound 78, Agmatine sulfate], `NCCCCCC(=O)O` [Compound 89, 6-Aminohexanoic acid] is higher in “Compound effect (percent receptor signaling in presence of test compound, relative lux units relative to the SCH23390 control)” value: 113 for the first, 120 for the second.

Going from `C=CC[C@H](N)C(=O)O` [Compound 87, L-allylglycine] to `N[C@@H](CC(=O)O)C(=O)O` [Compound 102, L-Aspartic acid], the “Compound effect (percent receptor signaling in presence of test compound, relative lux units relative to the SCH23390 control)” value falls from 107 to 106.

First: N=c1ccn2c(n1)O[C@H]1[C@H](O)[C@@H](CO)O[C@H]12 [Compound 95, Ancitabine hydrochloride]
Second: CN(C)c1nc(N(C)C)nc(N(C)C)n1 [Compound 97, Altretamine]
The “Compound effect (percent receptor signaling in presence of test compound, relative lux units relative to the SCH23390 control)” value of the first is higher: 119 for the first, 105 for the second.

In the case of `CC1=C(/C=C/C(C)=C/C=C/C(C)=C/C=C/C=C(C)/C=C/C=C(C)/C=C/C2=C(C)C(=O)[C@@H](O)CC2(C)C)C(C)(C)C[C@H](O)C1=O` [Compound 103, Astaxanthin], the “Compound effect (percent receptor signaling in presence of test compound, relative lux units relative to the SCH23390 control)” value is reported as 106.

same assay, conditions: 10 µM compound, 300 nM dopamine, 2 hr; hit = compound effect <20

First: CCN(CC)CCNC(=O)c1ccc(NC(C)=O)cc1.Cl [Compound 65, N-Acetylprocainamide hydrochloride]
Second: CC(=O)NCCc1ccc(O)c(O)c1.O [Compound 98, N-Acetyldopamine monohydrate]
The “Compound effect (percent receptor signaling in presence of test compound, relative lux units relative to the SCH23390 control)” value of the first is higher: 126% for the first, 95% for the second.

Going from `NCC(O)(CS(=O)(=O)O)c1ccc(Cl)cc1` (stereo not drawn) [Compound 72, 2-Hydroxysaclofen] to `Cl.Cl.NCCNS(=O)(=O)c1cccc2cnccc12` [Compound 88, H-9 dihydrochloride], the “Compound effect (percent receptor signaling in presence of test compound, relative lux units relative to the SCH23390 control)” value falls from 110% to 64%.

First: NN=C(N)N.NN=C(N)N.O=S(=O)(O)O [Compound 77, Aminoguanidine hemisulfate]
Second: NC(N)=NC(=O)c1nc(Cl)c(N2CCCCCC2)nc1N [Compound 107, 5-(N,N-hexamethylene)amiloride]
The “Compound effect (percent receptor signaling in presence of test compound, relative lux units relative to the SCH23390 control)” value of the first is higher: 107% for the first, 82% for the second.

`Cl.N=C(N)NN` [Compound 99, Aminoguanidine hydrochloride] was tested, and the “Compound effect (percent receptor signaling in presence of test compound, relative lux units relative to the SCH23390 control)” value was 107%.

same assay, conditions: read-out: % of the SCH23390 effect (percent inhibition of receptor response relative to the SCH23390 control)

With `CCNC(=O)N1CCN(CCCC(c2ccc(F)cc2)c2ccc(F)cc2)CC1` [Compound 76, Amperozide hydrochloride] the inhibition at 10 µM was 83%.
